Measured values: patent US20220281848A1, “PYRAZOLE-SUBSTITUTED PYRROLIDINONES AS HERBICIDES” (FMC Corporation, priority 2019, published 2022)

Test system: plants
Test: Test D pre-emergence, other plants of Tables D1 and D3
Format: in vivo
Settings: for damage to plant, ALOMY / damage to plant, AVEFA / damage to plant, BEAVA / damage to plant, BROTE / damage to plant, BRSNN / damage to plant, HORVW / damage to plant, SINAR: pre-emergence, 100=total damage, 0=no damage; for ABUTH damage to plant (100=total damage; 0=no damage) / AMARE damage to plant (100=total damage; 0=no damage) / DIGSA damage to plant (100=total damage; 0=no damage) / ECHCG damage to plant (100=total damage; 0=no damage) / ORYSA damage to plant (100=total damage; 0=no damage) / PANMI damage to plant (100=total damage; 0=no damage) / SETFA damage to plant (100=total damage; 0=no damage): preemergent
Procedure, shortened: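 Seeds treated with herbicide safener; sown in soil; glasshouse, 16 h light, 65% humidity. Sprayed day 1 (pre) or ~day 12 (post). Spray in 0.2% v/v adjuvant. Scored 0–100 damage: 20 DAA pre, 15 d post.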

CN1CC(c2cc(C(F)(F)F)n(C)n2)C(C(=O)Nc2cccc(F)n2)C1=O (racemic) [Compound 24]
damage to plant, ALOMY (rate 15, 20 DAA): 0
damage to plant, AVEFA (rate 15, 20 DAA): 0
damage to plant, BEAVA (rate 15, 20 DAA): 0
damage to plant, BROTE (rate 15, 20 DAA): 0
damage to plant, BRSNN (rate 15, 20 DAA): 0
damage to plant, HORVW (rate 15, 20 DAA): 0
damage to plant, SINAR (rate 15, 20 DAA): 0
damage to plant, ALOMY (rate 30, 20 DAA): 0
damage to plant, AVEFA (rate 30, 20 DAA): 0
damage to plant, BEAVA (rate 30, 20 DAA): 0
damage to plant, BROTE (rate 30, 20 DAA): 0
damage to plant, BRSNN (rate 30, 20 DAA): 0
damage to plant, HORVW (rate 30, 20 DAA): 0
damage to plant, SINAR (rate 30, 20 DAA): 0
damage to plant, ALOMY (rate 60, 20 DAA): 0
damage to plant, AVEFA (rate 60, 20 DAA): 0
damage to plant, BEAVA (rate 60, 20 DAA): 0
damage to plant, BROTE (rate 60, 20 DAA): 0
damage to plant, BRSNN (rate 60, 20 DAA): 0
damage to plant, HORVW (rate 60, 20 DAA): 0
damage to plant, SINAR (rate 60, 20 DAA): 0
damage to plant, ALOMY (rate 130, 20 DAA): 0
damage to plant, AVEFA (rate 130, 20 DAA): 0
damage to plant, BEAVA (rate 130, 20 DAA): 0
damage to plant, BROTE (rate 130, 20 DAA): 0
damage to plant, BRSNN (rate 130, 20 DAA): 0
damage to plant, HORVW (rate 130, 20 DAA): 0
damage to plant, SINAR (rate 130, 20 DAA): 0
damage to plant, ALOMY (rate 250, 20 DAA): 0
damage to plant, AVEFA (rate 250, 20 DAA): 0
damage to plant, BEAVA (rate 250, 20 DAA): 0
damage to plant, BROTE (rate 250, 20 DAA): 0
damage to plant, BRSNN (rate 250, 20 DAA): 0
damage to plant, HORVW (rate 250, 20 DAA): 0
damage to plant, SINAR (rate 250, 20 DAA): 0
damage to plant, ALOMY (rate 500, 20 DAA): 10
damage to plant, AVEFA (rate 500, 20 DAA): 10
damage to plant, BEAVA (rate 500, 20 DAA): 0
damage to plant, BROTE (rate 500, 20 DAA): 0
damage to plant, BRSNN (rate 500, 20 DAA): 0
damage to plant, HORVW (rate 500, 20 DAA): 20
damage to plant, SINAR (rate 500, 20 DAA): 0
ABUTH damage to plant (100=total damage; 0=no damage) (Rates 15, 20 DAA): 0
AMARE damage to plant (100=total damage; 0=no damage) (Rates 15, 20 DAA): 0
DIGSA damage to plant (100=total damage; 0=no damage) (Rates 15, 20 DAA): 0
ECHCG damage to plant (100=total damage; 0=no damage) (Rates 15, 20 DAA): 0
ORYSA damage to plant (100=total damage; 0=no damage) (Rates 15, 20 DAA): 0
PANMI damage to plant (100=total damage; 0=no damage) (Rates 15, 20 DAA): 0
SETFA damage to plant (100=total damage; 0=no damage) (Rates 15, 20 DAA): 0
ABUTH damage to plant (100=total damage; 0=no damage) (Rates 30, 20 DAA): 0
AMARE damage to plant (100=total damage; 0=no damage) (Rates 30, 20 DAA): 0
DIGSA damage to plant (100=total damage; 0=no damage) (Rates 30, 20 DAA): 30
ECHCG damage to plant (100=total damage; 0=no damage) (Rates 30, 20 DAA): 10
ORYSA damage to plant (100=total damage; 0=no damage) (Rates 30, 20 DAA): 0
PANMI damage to plant (100=total damage; 0=no damage) (Rates 30, 20 DAA): 0
SETFA damage to plant (100=total damage; 0=no damage) (Rates 30, 20 DAA): 0
ABUTH damage to plant (100=total damage; 0=no damage) (Rates 60, 20 DAA): 0
AMARE damage to plant (100=total damage; 0=no damage) (Rates 60, 20 DAA): 0
DIGSA damage to plant (100=total damage; 0=no damage) (Rates 60, 20 DAA): 80
ECHCG damage to plant (100=total damage; 0=no damage) (Rates 60, 20 DAA): 50
ORYSA damage to plant (100=total damage; 0=no damage) (Rates 60, 20 DAA): 0
PANMI damage to plant (100=total damage; 0=no damage) (Rates 60, 20 DAA): 0
SETFA damage to plant (100=total damage; 0=no damage) (Rates 60, 20 DAA): 0
ABUTH damage to plant (100=total damage; 0=no damage) (Rates 130, 20 DAA): 0
AMARE damage to plant (100=total damage; 0=no damage) (Rates 130, 20 DAA): 0
DIGSA damage to plant (100=total damage; 0=no damage) (Rates 130, 20 DAA): 90
ECHCG damage to plant (100=total damage; 0=no damage) (Rates 130, 20 DAA): 70
ORYSA damage to plant (100=total damage; 0=no damage) (Rates 130, 20 DAA): 0
PANMI damage to plant (100=total damage; 0=no damage) (Rates 130, 20 DAA): 0
SETFA damage to plant (100=total damage; 0=no damage) (Rates 130, 20 DAA): 30
ABUTH damage to plant (100=total damage; 0=no damage) (Rates 250, 20 DAA): 20
AMARE damage to plant (100=total damage; 0=no damage) (Rates 250, 20 DAA): 0
DIGSA damage to plant (100=total damage; 0=no damage) (Rates 250, 20 DAA): 90
ECHCG damage to plant (100=total damage; 0=no damage) (Rates 250, 20 DAA): 90
ORYSA damage to plant (100=total damage; 0=no damage) (Rates 250, 20 DAA): 0
PANMI damage to plant (100=total damage; 0=no damage) (Rates 250, 20 DAA): 0
SETFA damage to plant (100=total damage; 0=no damage) (Rates 250, 20 DAA): 60
ABUTH damage to plant (100=total damage; 0=no damage) (Rates 500, 20 DAA): 20
AMARE damage to plant (100=total damage; 0=no damage) (Rates 500, 20 DAA): 10
DIGSA damage to plant (100=total damage; 0=no damage) (Rates 500, 20 DAA): 90
ECHCG damage to plant (100=total damage; 0=no damage) (Rates 500, 20 DAA): 90
ORYSA damage to plant (100=total damage; 0=no damage) (Rates 500, 20 DAA): 0
PANMI damage to plant (100=total damage; 0=no damage) (Rates 500, 20 DAA): 0
SETFA damage to plant (100=total damage; 0=no damage) (Rates 500, 20 DAA): 90
